Laboratory results as given in patent US5300629A, “Bactericidal and/or bacteriostatic peptides isolated from hemolymph of honeybees” (Plant Genetic Systems, N.V., priority 1987, dated 1994).
Values after ≈ are worked out from the molar mass of the structure shown. Where a SMILES comes first, the peptide text is derived from it.

Test system: Corynebacterium insidiosum NCPPB 1109
Assay: Minimal inhibitory concentration in liquid culture
Assay type: cell-based
Details: 200 μl rich medium, 10^4 log-phase bacteria
Procedure: In addition the exact concentration was determined precisely by amino-acid analysis and an equal sample of natural Bee 6b was prepared, allowing to compare the bactericidal activity of both natural and synthetic apidaecins by means of growth inhibition assays in liquid cultures (see mat & Meth.). The minimal inhibitory concentrations (μg/ml) were determined in liquid culture : 200 μl of a rich medium (trypticase soy broth or nutrient broth) was inoculated with 10^4 log-phase bacteria. Peptide concentrations ranged between 0 and 200 μg/ml. The values express μg/ml; when no inhibition was noticed the maximal values are given (+200 μg/ml or +50 μg/ml). All peptides were chemically synthesized, except for bee 6b which is purified from bee lymph.

CC[C@H](C)[C@H](NC(=O)[C@H](Cc1ccc(O)cc1)NC(=O)[C@@H](NC(=O)[C@@H]1CCCN1C(=O)[C@H](CCCNC(=N)N)NC(=O)[C@H](CC(N)=O)NC(=O)[C@H](CC(N)=O)NC(=O)CN)C(C)C)C(=O)N[C@@H](CCC(N)=O)C(=O)N1CCC[C@H]1C(=O)N[C@@H](CCCNC(=N)N)C(=O)N1CCC[C@H]1C(=O)N1CCC[C@H]1C(=O)N[C@@H](Cc1c[nH]cn1)C(=O)N1CCC[C@H]1C(=O)N[C@@H](CCCNC(=N)N)C(=O)N[C@@H](CC(C)C)C(=O)O [Apid PT-1] (H-GNNRPVYIQPRPPHPRL-OH)
minimal inhibitory concentration: 50 µg/mL (≈ 24.9 µM)
